For ten compounds, pest or weed control results are on record in patent publication US9084420B2, “Amide derivative, pest control agent containing the amide derivative, and pest controlling method” (Mitsui Chemicals Agro, Inc., priority 2008, dated 2015).

Where only a bound is given, the exact number is not on record here.

The test system of one experiment is Spodoptera litura. As to the kind of experiment: Pesticidal test against Spodoptera litura (cabbage leaf immersion). Conditions: 144 h, 2-stage larvae on treated cabbage leaf, 25° C., after 6 days, read-out: pesticidal rate. It is filed as in vivo. How it is done:
Pesticidal Test Against Spodoptera litura A piece of a cabbage leaf was immersed for 30 seconds in a chemical solution in which a test compound had been diluted at a predetermined concentration, and air-dried, and then put into a 7 cm polyethylene cup having a filter paper laid on the bottom thereof, and 2-stage larvae of Spodoptera litura were released. They were left to stand in a thermostatic chamber at 25° C., and the numbers of the living pests and the dead pests were examined after 6 days. The test was carried out with five larvae per group in two replicates.

Another experiment deals with Plutella xylostella. As to the kind of experiment: Pesticidal test against Plutella xylostella (cabbage leaf immersion). Format: in vivo. Conditions: 144 h, 3-stage larvae on treated cabbage leaf, 25° C., after 6 days, read-out: pesticidal rate. As to the method:
Pesticidal Test Against Plutella xylostella A piece of a cabbage leaf was immersed for 30 seconds in a chemical solution in which a test compound had been diluted at a predetermined concentration, and air-dried, and then put into a 7 cm polyethylene cup having a filter paper laid on the bottom thereof, and 3-stage larvae of Plutella xylostella were released. They were left to stand in a thermostatic chamber at 25° C., and the numbers of the living pests and the dead pests were examined after 6 days. The test was carried out with five larvae per group in two replicates.

Consider `Cc1cc(C(F)(C(F)(F)F)C(F)(F)F)cc(C)c1N(C)C(=O)c1cccc(N(CC#N)C(=O)c2ccccc2)c1` [6-18, 3-(N-(cyanomethyl)benzamide)-N-(2,6-dimethyl-4-(perfluoropropan-2-yl)phenyl)-N-methylbenzamide], for which the pest or weed control at 100 ppm with Spodoptera litura and in the experiment with Plutella xylostella was no less than 70% in each case.
As to `Cc1cc(C(F)(C(F)(F)F)C(F)(F)F)cc(C)c1N(C)C(=O)c1cccc(N(CCO)C(=O)c2ccccc2)c1` [5-35, N-(2,6-dimethyl-4-(perfluoropropan-2-yl)phenyl)-3-(N-(2-hydroxyethyl)benzamide)-N-methylbenzamide], the pest or weed control at 100 ppm in the experiment on Spodoptera litura and in the experiment on Plutella xylostella was no less than 70% in each case.
Take `COC(=O)CN(C(=O)c1ccccc1)c1cccc(C(=O)N(CC(=O)OC)c2c(C)cc(C(F)(C(F)(F)F)C(F)(F)F)cc2C)c1F` [8-12, methyl 2-(N-(3((2,6-dimethyl-4-(perfluoropropan-2-yl)phenyl)(2-methoxy-2-oxoethyl)carbamoyl)-2-fluorophenyl)benzamide)acetate]: the pest or weed control at 100 ppm with Spodoptera litura and with Plutella xylostella was no less than 70% each time.
On to `Cc1cc(C(F)(C(F)(F)F)C(F)(F)F)cc(C)c1NC(=O)c1cccc(N(CCC(=O)NCCCC(NC(=O)OC(C)(C)C)C(=O)OC(C)(C)C)C(=O)c2ccccc2)c1` (centres unmarked) [5-15, tert-butyl 2-(3-(2,6-dimethyl-4-(perfluoropropan-2-yl)phenylcarbamoyl)phenyl)-14,14-dimethyl-1,5,12-trioxo-1-phenyl-13-oxa-2,6,11-triazapentadecane-10-carboxylate], for which the pest or weed control at 100 ppm with Spodoptera litura and in the experiment with Plutella xylostella was no less than 70% in each case.
Turning to `Cc1cc(C(F)(C(F)(F)F)C(F)(F)F)cc(C)c1N(CC(N)=O)C(=O)c1cccc(N(C)C(=O)c2ccccc2)c1F` [7-220, N-(2-amino-2-oxoethyl)-N-(2,6-dimethyl-4-(perfluoropropan-2-yl)phenyl)-2-fluoro-3-(N-methylbenzamide)benzamide], the pest or weed control at 100 ppm with Spodoptera litura and in the experiment on Plutella xylostella was no less than 70% in each case.
On to `COC(=O)CN(C(=O)c1ccccc1)c1cccc(C(=O)N(C)c2c(C)cc(C(F)(C(F)(F)F)C(F)(F)F)cc2C)c1` [6-1, methyl 2-(N-(3((2,6-dimethyl-4-(perfluoropropan-2-yl)phenyl)(methyl)carbamoyl)phenyl)benzamide)acetate], for which the pest or weed control at 100 ppm with Spodoptera litura and with Plutella xylostella was no less than 70% throughout.
In the case of `Cc1cc(C(F)(C(F)(F)F)C(F)(F)F)cc(C)c1NC(=O)c1cccc(N(CC=O)C(=O)c2ccccc2)c1` [6-59, N-(3-(2,6-dimethyl-4-(perfluoropropan-2-yl)phenylcarbamoyl)phenyl)-N-(2-oxoethyl)benzamide], the pest or weed control at 100 ppm in the experiment on Spodoptera litura and in the experiment on Plutella xylostella was no less than 70% throughout.
Turning to `Cc1cc(C(F)(C(F)(F)F)C(F)(F)F)cc(C)c1N(C)C(=O)c1cccc(N(CCCC(N)=O)C(=O)c2ccccc2)c1` [6-15, 3-(N-(4-amino-4-oxobutyl)benzamide)-N-(2,6-dimethyl-4-(perfluoropropan-2-yl)phenyl)-N-methylbenzamide], the pest or weed control at 100 ppm with Spodoptera litura and with Plutella xylostella was no less than 70% throughout.
As to `Cc1cc(C(F)(C(F)(F)F)C(F)(F)F)cc(C)c1N(C)C(=O)c1cccc(N(CC(N)=O)C(=O)c2ccccc2)c1` [6-12, 3-(N-(2-amino-2-oxoethyl)benzamide)-N-(2,6-dimethyl-4-(perfluoropropan-2-yl)phenyl)-N-methylbenzamide], the pest or weed control at 100 ppm in the experiment with Spodoptera litura and in the experiment on Plutella xylostella was no less than 70% in each case.
As for `Cc1cc(C(F)(C(F)(F)F)C(F)(F)F)cc(C)c1NC(=O)c1cccc(N(CCCN)C(=O)c2ccccc2)c1` [6-20, N-(3-aminopropyl)-N-(3-(2,6-dimethyl-4-(perfluoropropan-2-yl)phenylcarbamoyl)phenyl)benzamide], the pest or weed control at 100 ppm in the experiment with Spodoptera litura and in the experiment on Plutella xylostella was no less than 70% each time.
